Like-named read-outs stand apart in the source and are kept apart here.
Molecular target: T1, TAS1R2/TAS1R3 sweet taste receptor (Homo sapiens, UniProt Q7RTX0+Q8TE23)
T1 construct: with TAS1R3
T1 sequence (Q8TE23 20-839): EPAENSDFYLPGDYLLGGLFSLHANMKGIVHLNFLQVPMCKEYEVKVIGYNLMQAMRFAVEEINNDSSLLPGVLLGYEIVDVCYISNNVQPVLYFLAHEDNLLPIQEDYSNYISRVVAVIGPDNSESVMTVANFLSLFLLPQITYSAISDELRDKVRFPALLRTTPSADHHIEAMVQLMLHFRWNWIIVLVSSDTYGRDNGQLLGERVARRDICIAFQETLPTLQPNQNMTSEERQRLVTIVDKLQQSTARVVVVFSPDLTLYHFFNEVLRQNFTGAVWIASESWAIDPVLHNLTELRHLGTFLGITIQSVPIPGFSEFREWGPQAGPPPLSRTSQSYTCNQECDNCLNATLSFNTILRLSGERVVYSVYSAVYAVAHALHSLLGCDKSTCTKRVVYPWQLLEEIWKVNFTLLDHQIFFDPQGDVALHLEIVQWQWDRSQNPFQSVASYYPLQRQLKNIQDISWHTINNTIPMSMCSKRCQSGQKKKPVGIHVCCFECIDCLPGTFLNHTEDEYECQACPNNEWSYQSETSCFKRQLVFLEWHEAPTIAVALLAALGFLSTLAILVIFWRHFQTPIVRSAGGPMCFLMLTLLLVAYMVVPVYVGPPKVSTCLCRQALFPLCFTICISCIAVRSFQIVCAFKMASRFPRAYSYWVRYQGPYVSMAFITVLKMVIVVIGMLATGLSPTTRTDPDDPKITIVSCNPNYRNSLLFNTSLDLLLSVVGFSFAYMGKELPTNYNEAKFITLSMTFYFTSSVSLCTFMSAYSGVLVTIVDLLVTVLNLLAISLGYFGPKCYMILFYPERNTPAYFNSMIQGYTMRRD
T1 sequence (Q7RTX0 21-852): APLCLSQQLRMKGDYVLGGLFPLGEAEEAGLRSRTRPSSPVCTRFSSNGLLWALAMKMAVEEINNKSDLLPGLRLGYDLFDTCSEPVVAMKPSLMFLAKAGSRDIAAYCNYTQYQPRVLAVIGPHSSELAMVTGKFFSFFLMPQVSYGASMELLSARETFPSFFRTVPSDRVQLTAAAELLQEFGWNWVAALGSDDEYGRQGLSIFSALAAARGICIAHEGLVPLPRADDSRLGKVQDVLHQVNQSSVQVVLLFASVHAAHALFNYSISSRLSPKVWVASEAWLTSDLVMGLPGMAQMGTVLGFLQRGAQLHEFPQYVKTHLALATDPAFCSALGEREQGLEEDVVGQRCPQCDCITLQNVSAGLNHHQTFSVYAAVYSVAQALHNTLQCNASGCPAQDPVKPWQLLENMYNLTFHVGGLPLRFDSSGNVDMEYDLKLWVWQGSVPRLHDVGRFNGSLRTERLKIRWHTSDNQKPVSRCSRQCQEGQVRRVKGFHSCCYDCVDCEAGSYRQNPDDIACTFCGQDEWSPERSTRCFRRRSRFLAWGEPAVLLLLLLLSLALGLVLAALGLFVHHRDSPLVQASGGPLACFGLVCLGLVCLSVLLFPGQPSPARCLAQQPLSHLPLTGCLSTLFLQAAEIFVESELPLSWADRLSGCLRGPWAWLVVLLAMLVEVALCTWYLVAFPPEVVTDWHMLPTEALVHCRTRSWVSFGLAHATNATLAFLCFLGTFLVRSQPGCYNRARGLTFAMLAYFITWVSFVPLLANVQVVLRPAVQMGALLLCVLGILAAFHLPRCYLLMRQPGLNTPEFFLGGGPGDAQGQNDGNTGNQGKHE
Assay: GCaMP6S calcium imaging in HEK293T-Gα[…]gust44 cells expressing TAS1R2/TAS1R3, mock-corrected
Type: cell-based

Row | EC50 (read-out: EC50 (converted)) [µM] | SMILES | EC50 [µM]
1 | – | C[C@]1(CO)CC(=O)[C@]2(C)CC[C@]3(C)C(=CCC4[C@@]5(C)CC[C@H](OC6O[C@H](C(=O)O)[C@@H](O)[C@H](O)[C@H]6O[C@@H]6OC[C@@H](O)[C@H](O)[C@H]6O)[C@](C)(CO)C5CC[C@]43C)C2C1 (stereo partly drawn) [compound 2, 3-O-β-D-xylopyranosyl-(1→2)-β-D-glucuronopyranosylwistariasapogenol A] | 35.9
2 | – | C[C@@H]1O[C@@H](O[C@H]2[C@H](O[C@H]3C(O[C@H]4CC[C@@]5(C)C(CC[C@]6(C)C5CC=C5C7C[C@@](C)(CO)CC(=O)[C@]7(C)CC[C@]56C)[C@@]4(C)CO)O[C@H](C(=O)O)[C@@H](O)[C@@H]3O)OC[C@@H](O)[C@@H]2O)[C@H](O)[C@H](O)[C@H]1O (stereo partly drawn) [compound 3, 3-O-α-L-rhamnopyranosyl-(1→2)-β-D-xylopyranosyl-(1→2)-β-D-glucuronopyranosywistariasapogenol A] | 31.3
3 | – | CC1(C)[C@@H](O[C@H]2O[C@H](C(=O)O)[C@@H](O)[C@H](O)[C@H]2O[C@@H]2O[C@H](C(=O)O)[C@@H](O)[C@H](O)[C@H]2O)CC[C@]2(C)[C@H]3C(=O)C=C4[C@@H]5C[C@@](C)(C(=O)O)CC[C@]5(C)CC[C@@]4(C)[C@]3(C)CC[C@@H]12 [glycyrrhizin] | 41.3
4 | 40.2 | OC[C@H]1O[C@H](O[C@]2(CCl)O[C@H](CCl)[C@@H](O)[C@@H]2O)[C@H](O)[C@@H](O)[C@H]1Cl [sucralose, reference compound] | –

— paper PMC9699193, “Activation of a Sweet Taste Receptor by Oleanane-Type Glycosides from Wisteria sinensis” (Molecules, 2022)
